Measured values published in ChEMBL document CHEMBL1142484, “Design and synthesis of sulfoximine based inhibitors for HIV-1 protease” (Bioorg Med Chem Lett, 2008).

These compounds were tested against Protease (Human immunodeficiency virus 1, UniProt Q9YQ12) (assay: Inhibition of HIV1 protease).
Sequence of Protease (Q9YQ12 whole entry): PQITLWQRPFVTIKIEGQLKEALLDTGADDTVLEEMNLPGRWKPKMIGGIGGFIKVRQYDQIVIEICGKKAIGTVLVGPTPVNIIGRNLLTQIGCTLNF

Point of comparison: `O=C(N[C@H]1c2ccccc2C[C@H]1O)[C@H](Cc1ccccc1)CC(O)C[C@@H](Cc1ccccc1)C(=O)N[C@H]1c2ccccc2C[C@H]1O`, IC50 0.0006 µM. Against it:
- CC(C)(C)NC(=O)[C@H]1CN(Cc2cccnc2)CCN1C[S+](=N)([O-])C[C@H](Cc1ccccc1)C(=O)N[C@@H]1c2ccccc2C[C@@H]1O (stereo partly drawn) — far higher, 100 µM
- CC(C)(C)NC(=O)C1CN(Cc2cccnc2)CCN1C[S+]([O-])C[C@H](Cc1ccccc1)C(=O)NC1c2ccccc2CC1O (single isomer, unassigned) — far higher, 100 µM
